Reference: US20260256771A1, “GALUNISERTIB FOR USE IN THE TREATMENT OF ANDROGENIC ALOPECIA” (SAÚDE VIÁVEL, S.A., priority 2022, published 2026)

Experiments:
TGFβ2 = assay: qRT-PCR of TGFβ transcripts in dermal papilla isolated from HFOCs; type: cell-based, human; details: Galunisertib-treated HFOCs (10 μM, 48 h)
Source text: Concentration and purity are ascertained in a NanoDrop spectrophotometer.
In addition, only anagen hair follicles are used.
Hair growth percentages is normalized to day 0.

[1] = tested on: C57BL/6 depilated male mice; assay: Hair growth in depilated mice under topical treatment (photographs, trichoscopy); type: in vivo, mouse; details: for hair growth in magnified photographs of depilated areas: day 9, vs vehicle control
Procedure: FIG. 7. Galunisertib induces hair growth in C57BL/6J mice. a) Mouse treatment scheme. 7-week-old C57BL/6J mice were depilated (day −2) and 2 days later (day 0) started being treated with vehicle (70% ethanol), galunisertib (10 μM and 100 μM) or 3% minoxidil for 21 non-continuous days. b) Photographs of C57BL/6J mice treated with vehicle (control), 10 μM and 100 μM galunisertib or 3% minoxidil at days 0, 5, 9 and 14. c) Magnified photographs of the depilation site of C57BL/6J mice treated with vehicle (Ctr), galunisertib (10 and 100 μM) or minoxidil at days 7 and 9. d) Trichoscopy images of depilated regions at days 8 and 10. N≥3 animals were used per timepoint per condition for image and skin collection; e) Mass spectrometry analysis of skin biopsies retrieved at day 14 from animals treated with 10 μM and 100 μM galunisertib. Values are mean±SD of n=3 animals per condition.
Mice are six-week-old male C57BL/6J mice purchased from the Charles River Laboratories. The animals are housed and allowed to adapt to the laboratory environment for one week before experiments start. Animals are maintained under a 12 h light/dark cycle and fed with regular rodent's chow and tap water ad libitum, at the i3S animal facility.
For depilation and treatments in order to synchronize hair growth cycle in mice, anagen is induced by depilation. Seven-week-old male C57BL/6J mice are anesthetized using 3% isoflurane and their back is shaved using a hair shaver. Hair is then further depilated using cold wax bands (Veet Minima). After the depilation, the excess of wax is removed with mineral oil, and a skin protector spray, Douxo Calm Sérum, is applied, followed by Cavilon, a barrier film spray. To allow for skin to fully recover, topical treatments started two days later. During the procedures mice are under volatile anesthesia (3% isoflurane) and are kept warmed. Mice are photographed with a camara or a trichoscope (Dino-Lite), before topical application of galunisertib (10 μM and 100 μM), minoxidil (3%) or vehicle (70% ethanol). Topical applications are performed using a syringe in order to cover the depilated area only. Hair growth is followed for 21 days, although telogen is apparent at day 18 post-treatment.

In the case of `Cc1cccc(-c2nn3c(c2-c2ccnc4ccc(C(N)=O)cc24)CCC3)n1` [Galunisertib], the “TGFβ2 gene expression in the DP” value (TGFβ2) is reported as “inhibit TGFβ2 gene expression”, the adverse side effects ([1]; mice under topical galunisertib (10 and 100 μM)) is reported as “no apparent adverse side effects” and the “hair growth in magnified photographs of depilated areas” value ([1]; topical 10 μM galunisertib) is reported as “marked improvement of hair growth”. For the same molecule, the “hair growth in magnified photographs of depilated areas” value ([1]; topical 100 μM galunisertib, ranked after 10 μM galunisertib) was “marked improvement of hair growth”, the “hair density by trichoscopy examination of depilated regions” value ([1]; topical galunisertib, in particular 10 μM, days 8 and 10) was “increased hair density” and the “macroscopic assessment of hair growth: darkness of depilated area (hair density)” value ([1]; topical, galunisertib 10 and 100 μM, minoxidil 3%, vs. control mice, day 5 to day 14) was “consistently darker”.
